Results from patent publication US20180265515A1 (Genentech, Inc., priority 2015, published 2018).

Columns and labels:
[1] = molecular target: T1, isolated recombinant JAK1 kinase domain (Homo sapiens, UniProt P23458); assay: JAK1 enzyme assay (Caliper LabChip, Ki); format: biochemical; details: 25 μM ATP; Morrison tight binding model
T1 construct: The activity of the isolated recombinant JAK1 and JAK2 kinase domain was measured
How it was run: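 Recombinant JAK1 or JAK2 kinase domain phosphorylating a 5-carboxyfluorescein-labelled JAK3-derived peptide, 30 min at 22° C, stopped with EDTA. Phosphorylated fraction of substrate quantified by Caliper LabChip microfluidic separation. Ki from Morrison tight-binding model corrected for ATP competition (Ki=Ki,app/(1+[ATP]/Km,app)).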

LRRK2 = LRRK2 (Homo sapiens, UniProt Q5S007); assay: LRRK2 assay (Life Technologies Adapta, SelectScreen Profiling, IC50); format: biochemical; details: for IC50: 75 μM ATP, 10-point curves, read-out: LRRK 2 IC50; for selectivity for JAK1 over LRRK2 (in words): 5-sulfanylphenyl compound compared with 5-chlorophenyl matched pair; for Ratio (LRRK 2 IC50: JAK1 Ki): selectivity ratio LRRK2 IC50 over JAK1 Ki
Sequence of LRRK2 (Q5S007 970-2527 limits assumed): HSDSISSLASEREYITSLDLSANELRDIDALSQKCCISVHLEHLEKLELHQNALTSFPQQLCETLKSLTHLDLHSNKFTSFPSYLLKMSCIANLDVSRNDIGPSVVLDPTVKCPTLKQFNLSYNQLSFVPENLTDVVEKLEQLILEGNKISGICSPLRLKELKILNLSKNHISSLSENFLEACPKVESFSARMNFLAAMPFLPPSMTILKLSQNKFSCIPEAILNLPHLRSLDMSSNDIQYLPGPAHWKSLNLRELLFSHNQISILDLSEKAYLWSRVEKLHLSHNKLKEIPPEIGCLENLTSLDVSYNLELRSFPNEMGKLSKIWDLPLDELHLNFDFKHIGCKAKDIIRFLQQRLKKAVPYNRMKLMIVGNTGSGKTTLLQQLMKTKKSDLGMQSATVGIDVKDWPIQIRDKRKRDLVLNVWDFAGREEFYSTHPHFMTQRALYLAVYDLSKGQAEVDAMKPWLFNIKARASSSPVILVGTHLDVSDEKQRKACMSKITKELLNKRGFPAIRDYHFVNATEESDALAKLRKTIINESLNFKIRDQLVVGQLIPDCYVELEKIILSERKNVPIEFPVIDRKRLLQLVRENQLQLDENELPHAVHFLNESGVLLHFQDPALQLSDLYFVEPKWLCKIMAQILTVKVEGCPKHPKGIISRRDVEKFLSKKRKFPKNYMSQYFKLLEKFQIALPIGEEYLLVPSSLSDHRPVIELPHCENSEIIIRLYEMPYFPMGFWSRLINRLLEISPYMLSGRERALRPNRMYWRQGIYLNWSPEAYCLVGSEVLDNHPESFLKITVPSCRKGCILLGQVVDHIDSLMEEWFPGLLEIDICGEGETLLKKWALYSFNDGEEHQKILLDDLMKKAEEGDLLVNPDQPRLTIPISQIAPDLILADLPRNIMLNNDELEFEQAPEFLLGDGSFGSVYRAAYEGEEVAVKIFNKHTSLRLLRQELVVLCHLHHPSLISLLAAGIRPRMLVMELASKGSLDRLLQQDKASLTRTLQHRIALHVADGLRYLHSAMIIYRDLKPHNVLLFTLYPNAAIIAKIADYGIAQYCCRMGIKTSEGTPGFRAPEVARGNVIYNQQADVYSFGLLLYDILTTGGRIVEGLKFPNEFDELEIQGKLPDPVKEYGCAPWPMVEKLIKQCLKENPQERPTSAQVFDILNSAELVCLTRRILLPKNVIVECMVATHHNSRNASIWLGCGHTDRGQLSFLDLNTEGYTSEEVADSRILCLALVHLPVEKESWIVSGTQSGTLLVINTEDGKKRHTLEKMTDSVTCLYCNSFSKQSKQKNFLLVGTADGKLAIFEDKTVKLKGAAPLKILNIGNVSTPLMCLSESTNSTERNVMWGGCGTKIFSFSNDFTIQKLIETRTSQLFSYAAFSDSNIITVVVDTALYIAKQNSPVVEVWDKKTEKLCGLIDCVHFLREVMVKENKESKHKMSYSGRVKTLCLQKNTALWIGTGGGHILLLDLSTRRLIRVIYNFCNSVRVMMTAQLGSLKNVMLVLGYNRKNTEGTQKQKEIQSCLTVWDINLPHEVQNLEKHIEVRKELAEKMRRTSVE

T1 sequence (P23458 875-1153 limits assumed): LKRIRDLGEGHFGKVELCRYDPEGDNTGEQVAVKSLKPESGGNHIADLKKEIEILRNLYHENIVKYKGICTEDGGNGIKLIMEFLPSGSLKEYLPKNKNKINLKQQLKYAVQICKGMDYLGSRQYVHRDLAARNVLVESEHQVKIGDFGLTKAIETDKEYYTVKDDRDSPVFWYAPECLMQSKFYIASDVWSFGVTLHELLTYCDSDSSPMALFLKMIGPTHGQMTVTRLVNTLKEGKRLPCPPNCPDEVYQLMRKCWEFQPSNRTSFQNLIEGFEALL

| Ki [1] | IC50 (LRRK2) | Ratio (LRRK 2 IC50: JAK1 Ki) (LRRK2) | Compound | selectivity for JAK1 over LRRK2 (in words) (LRRK2) |
| --- | --- | --- | --- | --- |
| 0.00031 µM | 2 µM | 6453 | CSc1ccc(OC(F)F)c(-c2nn(CC(=O)N3CCC(CN4CCN(CC(=O)N(C)C)CC4)CC3)cc2NC(=O)c2cnn3cccnc23)c1 [L] | high degree of JAK1 over LRRK2 selectivity |
| 0.0002 µM | 3.35 µM | 16750 | CSc1ccc(OC(F)F)c(-c2nn(CC(=O)N3CCC(NCC(C)(C)C#N)CC3)cc2NC(=O)c2cnn3cccnc23)c1 [M] | high degree of JAK1 over LRRK2 selectivity |
| 0.00029 µM | 1.85 µM | 6379 | CSc1ccc(OC(F)F)c(-c2nn(CC(=O)N3CCC(N4CCOCC4)CC3)cc2NC(=O)c2cnn3cccnc23)c1 [N] | high degree of JAK1 over LRRK2 selectivity |
